Results published in PubChem BioAssay (NCI).
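Each compound was tested at five concentrations against cells in 96-well plates for 48 hours. TGI is the concentration that stops growth completely.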

Tests used:
Assay in all cases: DTP human tumour cell line panel, 48 h
[1] = tested on: M19-MEL melanoma
[2] = tested on: ACHN renal
[3] = tested on: OVCAR-3 ovarian
[4] = tested on: MALME-3M melanoma
[5] = tested on: TK-10 renal
[6] = tested on: A498 renal
[7] = tested on: LOX IMVI melanoma
[8] = tested on: HCC-2998 colon
[9] = tested on: DMS 273 small cell lung
[10] = tested on: NCI-H23 lung
[11] = tested on: HCT-15 colon
[12] = tested on: SK-MEL-2 melanoma
[13] = tested on: HCT-116 colon
[14] = tested on: SF-295 CNS
[15] = tested on: EKVX NSCLC
[16] = tested on: NCI-H226 lung
[17] = tested on: K-562 leukemia
[18] = tested on: HOP-18 NSCLC
[19] = tested on: DLD-1 colon
[20] = tested on: KM20L2 colon
[21] = tested on: NCI-H460 lung
[22] = tested on: UACC-257 melanoma
[23] = tested on: DMS 114 small cell lung
[24] = tested on: RXF 393 renal
[25] = tested on: HT29 colon
[26] = tested on: SNB-75 CNS
[27] = tested on: SF-539 CNS
[28] = tested on: HL-60(TB) leukemia
[29] = tested on: COLO 205 colon
[30] = tested on: LXFL 529 NSCLC
[31] = tested on: SW-620 colon
[32] = tested on: M14 melanoma
[33] = tested on: MOLT-4 leukemia
[34] = tested on: IGROV1 ovarian
[35] = tested on: 786-0 renal
[36] = tested on: CAKI-1 renal
[37] = tested on: A549 NSCLC
[38] = tested on: SNB-19 CNS
[39] = tested on: HOP-92 NSCLC
[40] = tested on: SK-MEL-5 melanoma
[41] = tested on: KM12 colon
[42] = tested on: OVCAR-5 ovarian
[43] = tested on: UACC-62 melanoma
[44] = tested on: CCRF-CEM leukemia
[45] = tested on: SF-268 CNS
[46] = tested on: OVCAR-4 ovarian
[47] = tested on: SK-MEL-28 melanoma
[48] = tested on: XF 498 CNS
[49] = tested on: T-47D breast
[50] = tested on: SN12C renal
[51] = tested on: HOP-62 NSCLC
[52] = tested on: RPMI-8226 leukemia
[53] = tested on: OVCAR-8 ovarian
[54] = tested on: PC-3 prostate
[55] = tested on: HS 578T breast
[56] = tested on: SK-OV-3 ovarian
[57] = tested on: MDA-MB-435
[58] = tested on: NCI-H522 lung
[59] = tested on: MDA-N
[60] = tested on: DU-145 prostate
[61] = tested on: BT-549 breast
[62] = tested on: MDA-MB-231 breast
[63] = tested on: NCI/ADR-RES ovarian
[64] = tested on: UO-31 renal
[65] = tested on: SNB-78 CNS
[66] = tested on: U251 CNS
[67] = tested on: MCF7 breast
[68] = tested on: SR leukemia

Cc1ccc(S(=O)(=O)N/N=C(\c2nc3ccc(Cl)cc3[nH]c2=O)C(O)c2ccco2)cc1 (stereo unspecified)
TGI [1]: > 100 µM
TGI [2]: > 100 µM
TGI [3]: > 100 µM
TGI [4]: > 100 µM
TGI [5]: > 100 µM
TGI [6]: > 100 µM
TGI [7]: > 100 µM
TGI [8]: > 100 µM
TGI [9]: > 100 µM
TGI [10]: > 100 µM
TGI [11]: > 100 µM
TGI [12]: > 100 µM
TGI [13]: > 100 µM
TGI [14]: > 100 µM
TGI [15]: > 100 µM
TGI [16]: > 100 µM
TGI [17]: > 100 µM
TGI [18]: > 100 µM
TGI [19]: > 100 µM
TGI [20]: > 100 µM
TGI [21]: > 100 µM
TGI [22]: > 100 µM
TGI [23]: > 100 µM
TGI [24]: > 100 µM
TGI [25]: > 100 µM
TGI [26]: > 100 µM
TGI [27]: > 100 µM
TGI [28]: > 100 µM
TGI [29]: > 100 µM
TGI [30]: > 100 µM
TGI [31]: > 100 µM
TGI [32]: > 100 µM
TGI [33]: > 100 µM
TGI [34]: > 100 µM
TGI [35]: > 100 µM
TGI [36]: > 100 µM
TGI [37]: > 100 µM
TGI [38]: > 100 µM
TGI [39]: > 100 µM
TGI [40]: > 100 µM
TGI [41]: > 100 µM
TGI [42]: > 100 µM
TGI [43]: > 100 µM
TGI [44]: > 100 µM
TGI [45]: > 100 µM
TGI [46]: > 100 µM
TGI [47]: > 100 µM

CCOC(=O)N1C/C(=C\c2ccccc2)C(=O)/C(=C/c2ccccc2)C1
TGI [1]: 3.22 µM
TGI [2]: 10.6 µM
TGI [48]: 26.6 µM
TGI [3]: 14.5 µM
TGI [4]: 16.9 µM
TGI [49]: > 31.6 µM
TGI [5]: 26.4 µM
TGI [6]: 34.2 µM
TGI [7]: 3.63 µM
TGI [8]: 4.8 µM
TGI [50]: 5.61 µM
TGI [51]: 24.8 µM
TGI [9]: 6.44 µM
TGI [10]: 11.4 µM
TGI [52]: 1.77 µM
TGI [53]: 9.51 µM
TGI [11]: 5.74 µM
TGI [12]: 28.2 µM
TGI [54]: 5.16 µM
TGI [13]: 2.75 µM
TGI [14]: 10.1 µM
TGI [15]: 31.8 µM
TGI [55]: 15.3 µM
TGI [16]: 12.3 µM
TGI [56]: 27.8 µM
TGI [17]: > 38.3 µM
TGI [18]: > 67.5 µM
TGI [19]: 7.25 µM
TGI [20]: 22.4 µM
TGI [21]: 42.4 µM
TGI [22]: 12.5 µM
TGI [57]: 5.8 µM
TGI [58]: 7.44 µM
TGI [23]: 14.5 µM
TGI [24]: 10.3 µM
TGI [25]: 4.05 µM
TGI [26]: 22.4 µM
TGI [27]: 11 µM
TGI [28]: 4.3 µM
TGI [29]: 11.6 µM
TGI [59]: 3.62 µM
TGI [30]: 12.4 µM
TGI [60]: > 55.8 µM
TGI [31]: 3.7 µM
TGI [32]: 6.69 µM
TGI [61]: 4.54 µM
TGI [62]: 5.3 µM
TGI [33]: 6 µM
TGI [63]: 36.6 µM
TGI [64]: 12.4 µM
TGI [34]: 11.7 µM
TGI [35]: 9.15 µM
TGI [36]: 4.51 µM
TGI [37]: 54.3 µM
TGI [38]: 20.2 µM
TGI [39]: 22.4 µM
TGI [40]: 6.2 µM
TGI [65]: > 81.2 µM
TGI [66]: 7.43 µM
TGI [41]: 4.55 µM
TGI [42]: 18.2 µM
TGI [67]: > 20.9 µM
TGI [68]: 4.05 µM
TGI [43]: 6.51 µM
TGI [44]: 5.79 µM
TGI [45]: 11.9 µM
TGI [46]: 13.6 µM
TGI [47]: 6.69 µM

Cc1cc(N(CCC#N)S(=O)(=O)c2ccccc2)ccc1/C=C1\N=C(c2ccc(Cl)cc2)OC1=O
TGI [2]: > 100 µM
TGI [48]: > 100 µM
TGI [3]: > 100 µM
TGI [4]: > 100 µM
TGI [6]: > 100 µM
TGI [7]: > 100 µM
TGI [8]: > 100 µM
TGI [50]: > 100 µM
TGI [9]: > 100 µM
TGI [10]: > 100 µM
TGI [52]: > 100 µM
TGI [53]: > 100 µM
TGI [11]: > 100 µM
TGI [12]: > 100 µM
TGI [13]: > 100 µM
TGI [14]: > 100 µM
TGI [15]: > 100 µM
TGI [16]: > 100 µM
TGI [17]: > 100 µM
TGI [19]: > 100 µM
TGI [20]: > 100 µM
TGI [21]: > 100 µM
TGI [22]: > 100 µM
TGI [23]: > 100 µM
TGI [24]: > 100 µM
TGI [25]: > 100 µM
TGI [27]: > 100 µM
TGI [28]: > 100 µM
TGI [29]: > 100 µM
TGI [30]: > 100 µM
TGI [31]: > 100 µM
TGI [32]: > 100 µM
TGI [33]: > 100 µM
TGI [64]: > 100 µM
TGI [34]: > 100 µM
TGI [35]: > 100 µM
TGI [36]: > 100 µM
TGI [37]: > 100 µM
TGI [38]: > 100 µM
TGI [39]: > 100 µM
TGI [40]: > 100 µM
TGI [65]: > 100 µM
TGI [66]: > 100 µM
TGI [41]: > 100 µM
TGI [42]: > 100 µM
TGI [43]: > 100 µM
TGI [44]: > 100 µM
TGI [45]: > 100 µM
TGI [46]: > 100 µM
TGI [47]: > 100 µM

NC(CCCC(N)P(=O)(O)O)C(=O)O (stereo unspecified)
TGI [1]: > 100 µM
TGI [2]: > 100 µM
TGI [5]: > 100 µM
TGI [6]: > 100 µM
TGI [51]: > 100 µM
TGI [9]: > 100 µM
TGI [10]: > 100 µM
TGI [53]: > 100 µM
TGI [13]: > 100 µM
TGI [14]: > 100 µM
TGI [15]: > 100 µM
TGI [16]: > 100 µM
TGI [56]: > 100 µM
TGI [20]: > 100 µM
TGI [21]: > 100 µM
TGI [22]: > 100 µM
TGI [58]: > 100 µM
TGI [23]: > 100 µM
TGI [24]: > 100 µM
TGI [25]: > 100 µM
TGI [28]: > 100 µM
TGI [32]: > 100 µM
TGI [33]: > 100 µM
TGI [64]: > 100 µM
TGI [34]: > 100 µM
TGI [38]: > 100 µM
TGI [39]: > 100 µM
TGI [65]: > 100 µM
TGI [66]: > 100 µM
TGI [41]: > 100 µM
TGI [42]: > 100 µM
TGI [68]: > 100 µM
TGI [43]: > 100 µM
TGI [44]: > 100 µM
TGI [45]: > 100 µM
TGI [47]: > 100 µM
